Reference: US9523082B2, “Firefly luciferase” (priority 2014, dated 2016)
Like-named read-outs stand apart in the source and are kept apart here.

Tested on: SP2 luciferase (Luciola sp2 firefly luciferase), wild type, SEQ ID NO: 1
Assay: Km of SP2 luciferase for D-luciferin and ATP (luminescence kinetics, Michaelis-Menten fit)
Format: biochemical, Luciola sp2 (Malaysian firefly)
Settings: for Km: 0.1 M Tris-HCl pH 8.0, MgSO4 8 mM in injected solution
Procedure: The measurements were carried out ten times for each sample, and the average of absorbency was used for the calculation.
A solution of 0.1 M Tris-HCl (pH 8.0) containing each of the purified luciferase, 4 mM of ATP, and 8 mM of MgSO4 was connected to the standard pump of the luminometer, and the measurements was carried out at the same time as addition of 50 μl of the solution to the well. A Luminescensor (ATTO) was used for the measurements. Measurements were repeated 3 times for each luciferin concentration.
The peak intensity of the obtained photo count value was plotted with respect to luciferin concentration S, defining the initial rate as V. The plots were subjected to curve fitting of Michaelis Menten type, thereby giving Km values. The curve fitting was performed by a nonlinear least-squares method, and the search of the parameter was performed by a Newton method.
Under various ATP concentrations, the luminous intensity of the obtained luciferase was measured. Based on the results, Km values with respect to ATP was determined.
Various 12 types of ATP solutions were prepared by adding ATP to 0.1 M Tris-HCl (pH 8.0). These solutions contain ATP at final concentration of 5, 10, 20, 40, 80, 160, 320, 480, 640, 800, 1280, 1600, or 1920 μM. These ATP solutions were each injected into 96-hole in a microplate at a volume of 50 μl. […] Measurement was repeated 3 times for each ATP concentration.
The peak intensities of the obtained photon count value were plotted with respect to ATP concentration S, with an initial rate V. The plots were subjected to curve fitting of Michaelis Menten type, thereby giving Km value. The curve fitting was performed by a nonlinear least-squares method, and the search of the parameter was performed by a Newton method.

Nc1ncnc2c1ncn2[C@@H]1O[C@H](COP(=O)(O)OP(=O)(O)OP(=O)(O)O)[C@@H](O)[C@H]1O [ATP]
Km (D-luciferin 1 mM, read-out: Km ATP): 188 µM
Km with respect to ATP, compared with known luciferase (FIG. 2) (comparison in words): higher Km values

O=C(O)[C@H]1CSC(c2nc3ccc(O)cc3s2)=N1 [D-luciferin]
Km with respect to D-luciferin, compared with known luciferase (FIG. 2) (comparison in words): higher Km values
Km (read-out: Km D-luciferin, ATP 4 mM): 4.25 µM
